By melting point is commonly meant the temperature, or range, at which the solid turns liquid.

Compound `CCCCCCCCCCCC(=O)NCCOCCn1c(CCOC)nc2c(N)nc3ccccc3c21` [Example 3, N-(2-{2-[4-amino-2-(2-methoxyethyl)-1H-imidazo[4,5-c]quinolin-1-yl]ethoxy}ethyl)dodecanamide] came in with a melting point of 80 to 83 °C.

`CCCCCCCCCCCCCCCCCC(=O)NCCOCCn1c(CCOC)nc2c(N)nc3ccccc3c21` [Example 2, N-(2-{2-[4-amino-2-(2-methoxyethyl)-1H-imidazo[4,5-c]quinolin-1-yl]ethoxy}ethyl)octadecanamide] came in with a melting point of 80 to 83 °C.

In the case of `CCCCCCCCCCCCCC(=O)NCCOCCn1c(CCOC)nc2c(N)nc3ccccc3c21` [Example 4, N-(2-{2-[4-amino-2-(2-methoxyethyl)-1H-imidazo[4,5-c]quinolin-1-yl]ethoxy}ethyl)tetradecanamide], the melting point lay in the range of 85 to 87 °C.

The values above are taken from US7799800B2, “Lipid-modified immune response modifiers” (3M Innovative Properties Company, priority 2003, dated 2010).
